Assay results: paper PMC11874007, “Switching Roles—Exploring Concentration-Dependent Agonistic versus Antagonistic Behavior of Integrin Ligands” (Journal of Medicinal Chemistry, 2025)
Non-standard residues stand in square brackets, D forms with d. NMeV = CN[C@H](C(=O)O)C(C)C

How the values were obtained:
[1] = target: T1, human αvβ3-integrin (Homo sapiens, UniProt P05106+P06756); conditions: previously published values; cited from earlier work
T1 construct: purchased R&D 3050-AV-050

[2] = target: T2, human α5β1-integrin (Homo sapiens, UniProt P05556+P08648); conditions: previously published values; cited from earlier work
T2 construct: purchased R&D 3230-A5-050

[3] = target: T3, human αvβ6-integrin (Homo sapiens, UniProt P06756+P18564); conditions: previously published values; cited from earlier work
T3 construct: purchased R&D 3817-AV-050

[4] = system: FAK, p-FAK, p44/42erk-1/2, p-p44/42erk-1/2 in αvβ3+ M21 cells; assay: Western blot of FAK and p44/42erk-1/2 expression and activation, M21 cells; type: cell-based
Procedure: (§1) Since agonistic ligand performance requires integrin activation and signaling, by Western blot analysis, we studied whether the different ligands alter the expression levels and activation states of FAK and p44/42^(erk-1/2). For this, the respective target integrin-expressing tumor cell types were incubated with the corresponding subtype-selective ligand at a concentration of 1 μM for 24 h (Figure 8). […] Signal intensities of FAK and p44/42^(erk-1/2) expression and activation (p-FAK and p-p44/42^(erk-1/2)) on Western blots were evaluated by densitometry. Data are depicted as GAPDH-normalized fluorescence signal intensities as n-fold, by setting values obtained for the respective untreated cells to “1”. […] MAPK p44/42^(erk-1/2) expression was approximately 2.2-fold augmented, p44/42^(erk-1/2) by approximately 2.5-fold. It also raised activation of p-FAK and p-p44/42^(erk-1/2) by approximately 2.2-fold and 3.1-fold, respectively, in α5β1+ OV-MZ-6 cells. […] Additionally, it raised FAK (approximately 1.7-fold) and p-p44/42^(erk-1/2) (approximately 2.4-fold) in α5β1+ OV-MZ-6 cells.
(§2) Figure 8 Effects of ligands on cellular expression and activation of integrin-related signaling molecules FAK and p44/42^(erk-1/2). […] Signal intensities for FAK and p-FAK, respectively, were evaluated by use of the Bio-Rad Imager Gel Doc XR+ and a ChemiDoc XRS+ Systems and the software Image Lab. Shown are typical representative Western blot images and the corresponding histograms depicting GAPDH-normalized signal intensities as n-fold by setting the values obtained for untreated cells to “1” (drawn as black line). For each cell line, cutouts of identical gels are depicted.
(§3) In order to capture early and transient changes in signaling activation following ligand treatment, we next reduced the observation periods to 5, 30, or 60 min and assessed FAK expression and activation. […] Depicted are typical Western blot images and the corresponding densitometrical evaluations of GAPDH-normalized signal intensities as n-fold, by setting that of the respective untreated cell type to “1” (Figure 9). […]
(§4) The kinases (p-)p44/42^(erk-1/2) and (p-)FAK were detected as previously published.[15],[8] Briefly, cells were grown for 18 h on six-well plates in DMEM (0.45 Mio cells/well). After medium exchange, fresh medium with L1–L5 (concentration: 1.0 μM, 2 mL/well) was added, and cells were incubated for another 24 h at 37 °C. In a second series, cells were incubated with L1–L5 (1 μM or 1 nM) for 5, 30, or 60 min. Thereafter, the cellular proteins were extracted and processed by Western blotting. Proteins were visualized using the Pierce ECL chemiluminescent substrate (Thermo Fisher Scientific). Band signal intensities for (p-)p44/42^(erk-1/2) and (p-)FAK were evaluated using the Bio-Rad Imager Gel Doc XR + and ChemiDoc XRS + Systems and the software Image Lab. Differences in protein loading and blotting efficiency were normalized by reprobing the membranes with a monoclonal antibody directed to GAPDH. Signal intensities for protein bands of interest were normalized to those recorded for GAPDH. Typical Western blot images are depicted together with histograms summarizing the mean values of normalized fluorescence signal intensities as n-fold, by setting those obtained for untreated cells to “1”.

[5] = system: FAK, p-FAK, p44/42erk-1/2, p-p44/42erk-1/2 in α5β1+ OV-MZ-6 cells; assay: Western blot of FAK and p44/42erk-1/2 expression and activation, OV-MZ-6 cells; type: cell-based; conditions: 1 μM, 5, 30 or 60 min
Procedure: as §1, §2, §3, §4

[6] = system: αvβ3+ M21 cells; assay: Wound scratch cell migration assay, M21 cells; type: cell-based
Procedure: (§5) As a biological readout for integrin signaling, we analyzed ligand effects on cell adhesion and migration by wound scratch assays (Figure 10A,B). […] Microscopical images were taken directly after wounding the cell monolayers and then after 9, 24, 48, and 72 h, respectively.
(§6) Figure 10 (A) Effect of integrin ligands on cancer cell migration. […] Microscopical measurements of wound gaps were taken directly after setting the wound scratch and then after 9, 24, 48, and 72 h, respectively. Wound scratch assays were repeated at least three times. The extent of wound gap closure [%]/cell coverage was calculated by a python script utilizing Canny’s Edge Detection algorithm as described under Materials and summarized in the corresponding histograms (see also Scheme S5 in the Supporting Information). (B) Adhesion of M21, OV-MZ-6, and HN cells in the presence of the respective integrin targeting ligand at low (1 nM) and high (1 μM) concentrations. […] Depicted are typical microscopical images of the respective cell monolayers.
(§7) The assays were performed according to a modified protocol as previously published.[94] Cells were cultivated on fibronectin-coated 12-well cell culture plates until cell monolayers reached an approximately 80% confluency. Then, the wound scratch was set utilizing a 200 μL pipet tip. Subsequently, fresh culture medium was added in the absence or presence of L1–L5 (concentration: 1 μM or 1 nM), and microscopical images (Zeiss, Oberkochen, Germany) were taken at two identical positions of the wound gap directly after wounding and then at 9, 24, 48, or 72 h of further cell cultivation. Each wound scratch assay was repeated three times. A custom python script was implemented to analyze wound gap closure over time: after cropping the images, we used the OpenCV[95] implementation of Canny’s Edge Detection Algorithm[96] to ensure reliable measurements even with variable lighting conditions.[97] As a first step, a 5 × 5 Gaussian filter was applied to remove background noise. The smoothened images were then filtered by a Sobel kernel[98] and the magnitude and direction of the intensity gradient of the images calculated. Then, a non-maximum suppression algorithm was applied to identify relevant pixels that presumably contribute to edges. In a final step, threshold hysteresis was utilized to distinguish true edges from variations in intensity or the remaining background noise. The resulting images were then segmented and binarized by use of a grid filter and analyzed with respect to cell-covered area relative to the start image of each series.

[7] = system: α5β1+ OV-MZ-6 cells; assay: Wound scratch cell migration assay, OV-MZ-6 cells; type: cell-based; conditions: OV-MZ-6 cells
Procedure: as §5, §6, §7
Scheme S5. Effect of integrin ligands on cancer cell migration (control cells to Fig. 10A in the main manuscript). a) Integrin αvβ3- OV-MZ-6 cells, α5β1- M21 cells, α5β1+ and αvβ3- and […]
mages of wound gaps were taken directly after setting the wound scratch and then after […], respectively. Wound scratch assays were repeated at least 3 times. The extent of wound gap closure [%]/cell coverage was calculated by a python script utilizing Canny’s Edge Detection algorithm11 as described in the Experimental Section and summarized in the corresponding histograms.
(1 picture or pasted object on this page, not shown here)

[8] = system: M21 cells; assay: Cell adhesion in the presence of ligand, M21 cells; type: cell-based; conditions: 1 μM
Procedure: as §6

[9] = system: glioblastoma; conditions: phase II and III trials; cited from earlier work
[10] = system: tumor angiogenesis; conditions: low dose; cited from earlier work

T3 sequence (P06756 31-992 limits assumed): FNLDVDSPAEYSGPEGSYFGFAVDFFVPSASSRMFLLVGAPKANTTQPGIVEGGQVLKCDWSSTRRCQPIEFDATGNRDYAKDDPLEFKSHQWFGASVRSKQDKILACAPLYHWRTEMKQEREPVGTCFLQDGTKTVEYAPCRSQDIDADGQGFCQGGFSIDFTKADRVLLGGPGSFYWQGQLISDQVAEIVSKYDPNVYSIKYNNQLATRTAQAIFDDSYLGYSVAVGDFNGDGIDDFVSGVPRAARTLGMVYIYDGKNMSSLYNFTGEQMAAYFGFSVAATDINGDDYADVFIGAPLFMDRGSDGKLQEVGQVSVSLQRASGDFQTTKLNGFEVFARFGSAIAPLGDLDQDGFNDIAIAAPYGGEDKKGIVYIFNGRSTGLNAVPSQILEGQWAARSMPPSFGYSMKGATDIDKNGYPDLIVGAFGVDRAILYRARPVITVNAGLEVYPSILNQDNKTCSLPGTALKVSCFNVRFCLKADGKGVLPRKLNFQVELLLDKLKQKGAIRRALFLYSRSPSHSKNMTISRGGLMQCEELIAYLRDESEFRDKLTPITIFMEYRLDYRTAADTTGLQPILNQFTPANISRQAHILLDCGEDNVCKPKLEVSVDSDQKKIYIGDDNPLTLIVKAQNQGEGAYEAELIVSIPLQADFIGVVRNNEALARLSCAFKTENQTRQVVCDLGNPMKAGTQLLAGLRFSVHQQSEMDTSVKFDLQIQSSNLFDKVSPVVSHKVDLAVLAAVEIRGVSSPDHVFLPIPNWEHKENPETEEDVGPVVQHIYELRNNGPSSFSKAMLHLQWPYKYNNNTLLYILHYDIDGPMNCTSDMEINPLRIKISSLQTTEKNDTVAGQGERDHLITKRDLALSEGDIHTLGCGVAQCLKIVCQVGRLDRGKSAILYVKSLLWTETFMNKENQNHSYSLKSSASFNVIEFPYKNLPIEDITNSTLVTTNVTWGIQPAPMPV
T3 sequence (P18564 22-707 limits assumed): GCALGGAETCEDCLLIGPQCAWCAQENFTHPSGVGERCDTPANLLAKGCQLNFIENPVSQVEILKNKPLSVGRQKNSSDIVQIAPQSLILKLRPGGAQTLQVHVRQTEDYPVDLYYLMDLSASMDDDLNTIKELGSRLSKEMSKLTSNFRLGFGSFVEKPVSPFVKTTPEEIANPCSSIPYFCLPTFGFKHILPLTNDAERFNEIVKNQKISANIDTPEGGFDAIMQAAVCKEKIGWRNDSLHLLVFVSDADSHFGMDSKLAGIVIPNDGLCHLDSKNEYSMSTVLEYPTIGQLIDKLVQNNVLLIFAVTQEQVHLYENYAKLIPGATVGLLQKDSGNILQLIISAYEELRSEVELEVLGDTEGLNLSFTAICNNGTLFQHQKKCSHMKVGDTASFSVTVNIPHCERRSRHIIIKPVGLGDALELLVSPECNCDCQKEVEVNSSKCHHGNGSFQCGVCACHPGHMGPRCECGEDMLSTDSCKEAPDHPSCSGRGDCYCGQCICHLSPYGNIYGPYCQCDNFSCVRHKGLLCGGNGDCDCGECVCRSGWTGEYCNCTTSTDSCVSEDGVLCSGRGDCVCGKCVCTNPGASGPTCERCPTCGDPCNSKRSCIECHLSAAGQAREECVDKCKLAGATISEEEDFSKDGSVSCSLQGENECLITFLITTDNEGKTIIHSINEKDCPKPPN
T1 sequence (P06756 31-992 limits assumed): as the sequence (P06756 31-992 limits assumed) above
T1 sequence (P05106 27-718 limits assumed): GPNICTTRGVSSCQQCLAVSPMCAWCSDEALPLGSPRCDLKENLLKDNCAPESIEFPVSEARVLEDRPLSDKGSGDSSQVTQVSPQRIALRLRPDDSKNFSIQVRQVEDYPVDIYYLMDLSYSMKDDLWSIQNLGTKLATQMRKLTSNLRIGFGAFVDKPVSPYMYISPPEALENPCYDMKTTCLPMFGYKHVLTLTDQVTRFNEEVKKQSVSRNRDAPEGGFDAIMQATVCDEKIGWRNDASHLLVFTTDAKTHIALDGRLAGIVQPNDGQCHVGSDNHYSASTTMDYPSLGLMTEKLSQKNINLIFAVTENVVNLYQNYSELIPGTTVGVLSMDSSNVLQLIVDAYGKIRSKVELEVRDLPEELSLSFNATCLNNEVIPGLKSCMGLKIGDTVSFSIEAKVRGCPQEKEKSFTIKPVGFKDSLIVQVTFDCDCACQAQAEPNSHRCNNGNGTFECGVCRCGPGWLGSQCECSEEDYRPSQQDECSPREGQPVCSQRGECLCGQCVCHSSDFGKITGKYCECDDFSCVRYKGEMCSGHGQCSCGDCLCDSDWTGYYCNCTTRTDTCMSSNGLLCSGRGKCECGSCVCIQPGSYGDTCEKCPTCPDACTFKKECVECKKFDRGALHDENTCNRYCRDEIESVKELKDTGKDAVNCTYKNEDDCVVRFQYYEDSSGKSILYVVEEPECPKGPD
T2 sequence (P08648 42-995 limits assumed): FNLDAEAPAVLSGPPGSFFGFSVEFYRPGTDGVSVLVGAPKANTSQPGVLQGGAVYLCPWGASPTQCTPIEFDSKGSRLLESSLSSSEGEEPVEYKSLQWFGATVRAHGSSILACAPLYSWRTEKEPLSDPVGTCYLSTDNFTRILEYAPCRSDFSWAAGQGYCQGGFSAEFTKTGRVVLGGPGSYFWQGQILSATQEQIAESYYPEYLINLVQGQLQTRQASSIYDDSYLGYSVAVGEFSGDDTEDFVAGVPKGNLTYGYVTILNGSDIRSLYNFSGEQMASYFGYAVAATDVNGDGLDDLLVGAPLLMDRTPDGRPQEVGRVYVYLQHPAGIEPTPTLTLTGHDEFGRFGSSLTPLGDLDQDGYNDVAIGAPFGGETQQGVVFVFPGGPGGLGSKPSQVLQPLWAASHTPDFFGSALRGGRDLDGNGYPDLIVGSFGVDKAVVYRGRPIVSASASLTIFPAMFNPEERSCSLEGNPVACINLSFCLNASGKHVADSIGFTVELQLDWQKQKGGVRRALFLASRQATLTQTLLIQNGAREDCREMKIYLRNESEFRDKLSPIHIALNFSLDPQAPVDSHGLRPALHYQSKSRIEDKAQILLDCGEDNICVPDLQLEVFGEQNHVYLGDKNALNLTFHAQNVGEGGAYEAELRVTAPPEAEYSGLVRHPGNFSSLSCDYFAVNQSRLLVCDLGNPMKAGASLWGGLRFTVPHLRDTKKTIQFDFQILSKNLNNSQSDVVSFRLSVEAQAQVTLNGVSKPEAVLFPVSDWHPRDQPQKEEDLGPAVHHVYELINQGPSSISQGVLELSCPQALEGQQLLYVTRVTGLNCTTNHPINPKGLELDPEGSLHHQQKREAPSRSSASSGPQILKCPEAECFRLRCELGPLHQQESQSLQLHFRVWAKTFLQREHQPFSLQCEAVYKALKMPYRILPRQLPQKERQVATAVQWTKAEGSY
T2 sequence (P05556 21-728 limits assumed): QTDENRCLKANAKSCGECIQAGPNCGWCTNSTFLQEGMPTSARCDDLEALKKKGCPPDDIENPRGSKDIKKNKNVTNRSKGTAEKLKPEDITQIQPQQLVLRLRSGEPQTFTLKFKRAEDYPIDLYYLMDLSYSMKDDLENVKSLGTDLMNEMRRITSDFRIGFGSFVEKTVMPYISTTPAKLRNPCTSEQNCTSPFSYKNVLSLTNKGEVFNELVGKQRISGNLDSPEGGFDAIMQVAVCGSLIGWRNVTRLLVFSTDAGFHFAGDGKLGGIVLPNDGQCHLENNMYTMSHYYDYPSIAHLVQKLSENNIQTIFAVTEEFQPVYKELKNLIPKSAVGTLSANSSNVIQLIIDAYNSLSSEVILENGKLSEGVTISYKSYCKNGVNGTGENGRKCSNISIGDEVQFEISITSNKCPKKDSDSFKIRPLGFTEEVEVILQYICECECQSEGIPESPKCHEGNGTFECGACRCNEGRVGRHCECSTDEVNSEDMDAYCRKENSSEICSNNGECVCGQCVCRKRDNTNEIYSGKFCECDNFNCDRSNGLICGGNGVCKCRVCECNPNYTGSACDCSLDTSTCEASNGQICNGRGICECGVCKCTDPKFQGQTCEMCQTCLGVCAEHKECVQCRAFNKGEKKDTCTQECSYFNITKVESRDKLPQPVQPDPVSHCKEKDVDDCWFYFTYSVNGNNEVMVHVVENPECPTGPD

Row | Substance | IC50 [1] | IC50 [2] | IC50 [3] | FAK expression versus untreated cells ([4]; 1 nM, 5, 30 or 60 min) | FAK expression versus untreated cells ([4]; 1 μM, 5, 30 or 60 min) | Decrease of p-FAK levels within 60 min ([4]; both concentrations (1 nM, 1 μM)) | p-FAK levels versus untreated cells ([4]; both concentrations (1 nM, 1 μM), up to 60 min) | FAK expression versus untreated cells [5] | Effect on wound gap closure / cell migration ([6]; 1 nM) | Effect on wound gap closure / cell migration ([6]; 1 μM) | Reduction of wound gap closure ([6]; 1 μM, after 9 h) | Cell coverage (wound gap closure) ([6]; 1 μM, within 72 h) | Effect on wound gap closure / cell migration ([7]; 1 nM) | Cell coverage (wound gap closure) ([7]; 1 μM, within 72 h) | Effect on cell adhesion / attachment [8] | Effect on cell adhesion / attachment ([8]; listed as CIL/L2) | Clinical efficacy [9] | Effect on tumor angiogenesis [10]
1 | RTDLDSLRT [linear peptide, internal standard for αvβ6, reference compound] | > 1000 nM | > 1000 nM | 29.5 ± 4.5 nM | – | – | – | – | – | – | – | – | – | – | – | – | – | – | –
2 | c(RGDf(NMe)V) (cyclo(RGD[dF][NMeV])) [cilengitide (L2), reference compound] | – | – | – | comparable to or slightly higher than in untreated | comparable to or slightly higher than in untreated | approximately threefold | almost comparable to that in untreated M21 cells | comparable to or slightly higher than in untreated | increased wound gap closure | markedly delaying wound gap closure | approximately threefold | approximately 40% | not effective | approximately 60% | abrogating adhesion and spreading | performed as inhibitors of cell attachment | poor clinical efficacy | rather promoted than inhibited tumor angiogenesis
